Data taken from the supplement of paper PMC10307832.

Experiments:
Test in all cases: relative viability (nuclei count vs DMSO), 5 days (fraction); higher = more cells survive
201T = system: 201T
Outline: (§1)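 For relative viability, nuclei counts in treated wells were divided by those in vehicle wells. Lung cancer cell lines had been pin-tool dosed in 1536-well plates the day after seeding and cultured for 5 days, then fixed and stained in one step (final 0.05% Triton X-100, 1% formaldehyde, 1 ug/ml Hoechst) and imaged at 4×. Doses were one drug alone or a fixed anchor-drug dose plus five library-drug doses (not always all listed) in √10 steps, and values are duplicate-plate medians.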

PC-3 [JPC-3] = system: PC-3 [JPC-3]
Outline: as §1

CAL-12T = system: CAL-12T
Outline: as §1

NCI-H661 = system: NCI-H661
Outline: as §1

LCLC-97TM1 = system: LCLC-97TM1
Outline: as §1

H3255 = system: H3255
Outline: as §1

ABC-1 = system: ABC-1
Outline: as §1

A-427 = system: A-427
Outline: as §1

LC-2-ad = system: LC-2-ad
Outline: as §1

NCI-H1915 = system: NCI-H1915
Outline: as §1

BEN = system: BEN
Outline: as §1

NCI-H596 = system: NCI-H596
Outline: as §1

NCI-H727 = system: NCI-H727
Outline: as §1

NCI-H1944 = system: NCI-H1944
Outline: as §1

NCI-H1650 = system: NCI-H1650
Outline: as §1

NCI-H520 = system: NCI-H520
Outline: as §1

NCI-H2087 = system: NCI-H2087
Outline: as §1

NCI-H650 = system: NCI-H650
Outline: as §1

NCI-H460 = system: NCI-H460
Outline: as §1

NCI-H2023 = system: NCI-H2023
Outline: as §1

NCI-H1651 = system: NCI-H1651
Outline: as §1

Compound: CCN(CC)CCCCNc1ncc2cc(-c3cc(OC)cc(OC)c3)c(NC(=O)NC(C)(C)C)nc2n1 + CS(=O)(=O)CCNCc1ccc(-c2ccc3ncnc(Nc4ccc(OCc5cccc(F)c5)c(Cl)c4)c3c2)o1 [Lapatinib] (partner 2 µM)
- relative viability (201T; first compound 0.01 µM): 1.03
- relative viability (201T; first compound 0.03162 µM): 1.04
- relative viability (201T; first compound 0.1 µM): 1.12
- relative viability (201T; first compound 0.3162 µM): 1.08
- relative viability (201T; first compound 1 µM): 0.884
- relative viability (PC-3 [JPC-3]; first compound 0.01 µM): 0.479
- relative viability (PC-3 [JPC-3]; first compound 0.03162 µM): 0.453
- relative viability (PC-3 [JPC-3]; first compound 0.1 µM): 0.519
- relative viability (PC-3 [JPC-3]; first compound 0.3162 µM): 0.538
- relative viability (PC-3 [JPC-3]; first compound 1 µM): 0.446
- relative viability (CAL-12T; first compound 0.03162 µM): 0.56
- relative viability (CAL-12T; first compound 0.1 µM): 0.703
- relative viability (CAL-12T; first compound 0.3162 µM): 0.674
- relative viability (CAL-12T; first compound 1 µM): 0.62
- relative viability (NCI-H661; first compound 0.01 µM): 0.569
- relative viability (NCI-H661; first compound 0.03162 µM): 0.457
- relative viability (NCI-H661; first compound 0.1 µM): 0.432
- relative viability (NCI-H661; first compound 0.3162 µM): 0.502
- relative viability (NCI-H661; first compound 1 µM): 0.493
- relative viability (LCLC-97TM1; first compound 0.03162 µM): 0.958
- relative viability (LCLC-97TM1; first compound 0.1 µM): 1.13
- relative viability (LCLC-97TM1; first compound 0.3162 µM): 0.923
- relative viability (LCLC-97TM1; first compound 1 µM): 1.12
- relative viability (H3255; first compound 0.01 µM): 0.26
- relative viability (H3255; first compound 0.03162 µM): 0.235
- relative viability (H3255; first compound 0.1 µM): 0.25
- relative viability (H3255; first compound 0.3162 µM): 0.258
- relative viability (H3255; first compound 1 µM): 0.227
- relative viability (ABC-1; first compound 0.01 µM): 1.33
- relative viability (ABC-1; first compound 0.03162 µM): 1.11
- relative viability (ABC-1; first compound 0.1 µM): 1.22
- relative viability (ABC-1; first compound 0.3162 µM): 1.34
- relative viability (ABC-1; first compound 1 µM): 1.22
- relative viability (A-427; first compound 0.01 µM): 1.15
- relative viability (A-427; first compound 0.03162 µM): 0.971
- relative viability (A-427; first compound 0.1 µM): 1.08
- relative viability (A-427; first compound 0.3162 µM): 1.1
- relative viability (A-427; first compound 1 µM): 0.899
- relative viability (LC-2-ad; first compound 0.01 µM): 1.05
- relative viability (LC-2-ad; first compound 0.03162 µM): 1
- relative viability (LC-2-ad; first compound 0.1 µM): 1.22
- relative viability (LC-2-ad; first compound 0.3162 µM): 1.12
- relative viability (LC-2-ad; first compound 1 µM): 0.917
- relative viability (NCI-H1915; first compound 0.01 µM): 1.1
- relative viability (NCI-H1915; first compound 0.03162 µM): 1.03
- relative viability (NCI-H1915; first compound 0.1 µM): 0.775
- relative viability (NCI-H1915; first compound 0.3162 µM): 1.1
- relative viability (NCI-H1915; first compound 1 µM): 0.971
- relative viability (BEN; first compound 0.01 µM): 0.76
- relative viability (BEN; first compound 0.03162 µM): 0.539
- relative viability (BEN; first compound 0.1 µM): 0.767
- relative viability (BEN; first compound 0.3162 µM): 0.835
- relative viability (BEN; first compound 1 µM): 0.651
- relative viability (NCI-H596; first compound 0.01 µM): 0.967
- relative viability (NCI-H596; first compound 0.03162 µM): 1.04
- relative viability (NCI-H596; first compound 0.1 µM): 1.11
- relative viability (NCI-H596; first compound 0.3162 µM): 0.977
- relative viability (NCI-H596; first compound 1 µM): 0.854
- relative viability (NCI-H727; first compound 0.01 µM): 0.705
- relative viability (NCI-H727; first compound 0.03162 µM): 0.743
- relative viability (NCI-H727; first compound 0.1 µM): 0.944
- relative viability (NCI-H727; first compound 0.3162 µM): 0.967
- relative viability (NCI-H727; first compound 1 µM): 1.08
- relative viability (NCI-H1944; first compound 0.01 µM): 0.903
- relative viability (NCI-H1944; first compound 0.03162 µM): 0.789
- relative viability (NCI-H1944; first compound 0.1 µM): 0.996
- relative viability (NCI-H1944; first compound 0.3162 µM): 0.836
- relative viability (NCI-H1944; first compound 1 µM): 0.676
- relative viability (NCI-H1650; first compound 0.01 µM): 0.714
- relative viability (NCI-H1650; first compound 0.03162 µM): 0.733
- relative viability (NCI-H1650; first compound 0.1 µM): 0.614
- relative viability (NCI-H1650; first compound 0.3162 µM): 0.35
- relative viability (NCI-H1650; first compound 1 µM): 0.242
- relative viability (NCI-H520; first compound 0.01 µM): 1.07
- relative viability (NCI-H520; first compound 0.03162 µM): 0.946
- relative viability (NCI-H520; first compound 0.1 µM): 1.11
- relative viability (NCI-H520; first compound 0.3162 µM): 0.792
- relative viability (NCI-H520; first compound 1 µM): 0.308
- relative viability (NCI-H2087; first compound 0.01 µM): 1.15
- relative viability (NCI-H2087; first compound 0.03162 µM): 0.99
- relative viability (NCI-H2087; first compound 0.1 µM): 1.23
- relative viability (NCI-H2087; first compound 0.3162 µM): 1.06
- relative viability (NCI-H2087; first compound 1 µM): 1.07
- relative viability (NCI-H650; first compound 0.01 µM): 0.988
- relative viability (NCI-H650; first compound 0.03162 µM): 0.944
- relative viability (NCI-H650; first compound 0.1 µM): 1.06
- relative viability (NCI-H650; first compound 0.3162 µM): 1.18
- relative viability (NCI-H650; first compound 1 µM): 0.734
- relative viability (NCI-H460; first compound 0.01 µM): 1.27
- relative viability (NCI-H460; first compound 0.03162 µM): 1.18
- relative viability (NCI-H460; first compound 0.1 µM): 0.985
- relative viability (NCI-H460; first compound 0.3162 µM): 1.53
- relative viability (NCI-H460; first compound 1 µM): 0.532
- relative viability (NCI-H2023; first compound 0.01 µM): 0.748
- relative viability (NCI-H2023; first compound 0.03162 µM): 0.94
- relative viability (NCI-H2023; first compound 0.1 µM): 1.17
- relative viability (NCI-H2023; first compound 0.3162 µM): 0.919
- relative viability (NCI-H2023; first compound 1 µM): 0.798
- relative viability (NCI-H1651; first compound 0.01 µM): 0.896
- relative viability (NCI-H1651; first compound 0.03162 µM): 1.03
- relative viability (NCI-H1651; first compound 0.1 µM): 1.18
- relative viability (NCI-H1651; first compound 0.3162 µM): 0.844
- relative viability (NCI-H1651; first compound 1 µM): 0.554
